Laboratory results taken from PMC9851200, “Multiparameter phenotypic screening for endogenous TFEB and TFE3 translocation identifies novel chemical series modulating lysosome function” (Autophagy, 2022).

Legend:
Assay type in all cases: binding
[1] = molecular target: kinases (KINOMEscan panel) (Homo sapiens, UniProt P00519, Y253F); details: kinase ABL1(Y253F)-phosphorylated; NEW KINOMEscan
[2] = molecular target: kinases (KINOMEscan panel) (Homo sapiens, UniProt P00519, H396P); details: NEW KINOMEscan
[3] = molecular target: kinases (KINOMEscan panel) (Homo sapiens, UniProt P06213); details: kinase INSR; NEW KINOMEscan
[4] = molecular target: kinases (KINOMEscan panel) (Homo sapiens, UniProt Q9Y463); details: kinase DYRK1B; NEW KINOMEscan
[5] = molecular target: kinases (KINOMEscan panel) (Homo sapiens, UniProt Q86Z02); details: HIPK1; NEW KINOMEscan
[6] = molecular target: kinases (KINOMEscan panel) (Homo sapiens, UniProt P07949, M918T); details: NEW KINOMEscan
[7] = molecular target: kinases (KINOMEscan panel) (Homo sapiens, UniProt Q14004)
[8] = molecular target: kinases (KINOMEscan panel) (Homo sapiens, UniProt P22607); details: FGFR3; NEW KINOMEscan
[9] = molecular target: T1, kinases (KINOMEscan panel) (Homo sapiens, UniProt Q9NWZ3); details: IRAK4; NEW KINOMEscan
T1 sequence (Q9NWZ3 1-460): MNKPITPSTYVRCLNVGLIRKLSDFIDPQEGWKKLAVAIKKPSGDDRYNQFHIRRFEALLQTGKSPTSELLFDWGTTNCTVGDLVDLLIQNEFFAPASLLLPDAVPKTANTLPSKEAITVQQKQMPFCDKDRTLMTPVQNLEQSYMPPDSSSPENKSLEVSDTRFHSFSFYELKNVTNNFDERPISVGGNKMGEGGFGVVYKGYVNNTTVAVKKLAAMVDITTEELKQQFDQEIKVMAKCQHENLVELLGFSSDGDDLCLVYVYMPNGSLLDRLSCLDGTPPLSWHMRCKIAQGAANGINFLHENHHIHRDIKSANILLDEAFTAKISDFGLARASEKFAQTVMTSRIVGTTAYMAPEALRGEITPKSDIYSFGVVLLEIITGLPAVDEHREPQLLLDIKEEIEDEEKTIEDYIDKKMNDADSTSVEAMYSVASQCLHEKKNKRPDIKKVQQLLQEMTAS

[10] = molecular target: kinases (KINOMEscan panel) (Homo sapiens, UniProt Q8IU85); details: kinase CAMK1D; NEW KINOMEscan
[11] = molecular target: kinases (KINOMEscan panel) (Homo sapiens, UniProt P53667); details: kinase LIMK1; NEW KINOMEscan
[12] = molecular target: T2, kinases (KINOMEscan panel) (Homo sapiens, UniProt Q8IVH8); details: NEW KINOMEscan
T2 sequence (Q8IVH8 1-894): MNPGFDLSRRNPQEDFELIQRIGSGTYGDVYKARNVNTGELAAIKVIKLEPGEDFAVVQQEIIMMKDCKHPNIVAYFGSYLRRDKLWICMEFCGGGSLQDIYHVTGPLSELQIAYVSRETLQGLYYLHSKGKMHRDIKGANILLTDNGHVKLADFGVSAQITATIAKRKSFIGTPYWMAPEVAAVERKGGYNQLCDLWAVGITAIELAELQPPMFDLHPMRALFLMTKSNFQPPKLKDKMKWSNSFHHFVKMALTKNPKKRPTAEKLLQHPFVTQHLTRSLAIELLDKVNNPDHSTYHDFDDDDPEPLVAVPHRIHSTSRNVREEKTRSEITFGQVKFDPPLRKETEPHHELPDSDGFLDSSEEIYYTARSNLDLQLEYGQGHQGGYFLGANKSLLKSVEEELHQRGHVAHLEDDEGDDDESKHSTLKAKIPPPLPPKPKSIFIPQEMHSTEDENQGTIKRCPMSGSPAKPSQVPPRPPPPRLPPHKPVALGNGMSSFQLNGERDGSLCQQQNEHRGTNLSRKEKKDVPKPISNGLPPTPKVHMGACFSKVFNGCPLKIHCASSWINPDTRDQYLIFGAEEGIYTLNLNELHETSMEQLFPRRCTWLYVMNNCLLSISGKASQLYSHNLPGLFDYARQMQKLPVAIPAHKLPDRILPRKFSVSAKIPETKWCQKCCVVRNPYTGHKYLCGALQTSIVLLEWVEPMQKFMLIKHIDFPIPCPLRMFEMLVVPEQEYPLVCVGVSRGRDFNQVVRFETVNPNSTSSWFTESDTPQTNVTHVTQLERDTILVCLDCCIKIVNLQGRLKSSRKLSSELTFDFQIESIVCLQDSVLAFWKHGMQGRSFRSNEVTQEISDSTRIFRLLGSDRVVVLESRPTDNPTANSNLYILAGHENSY

[13] = molecular target: kinases (KINOMEscan panel) (Homo sapiens, UniProt Q00537); details: kinase CDK17; NEW KINOMEscan
[14] = molecular target: kinases (KINOMEscan panel) (Homo sapiens, UniProt Q9H3Y6); details: NEW KINOMEscan
[15] = molecular target: kinases (KINOMEscan panel) (Homo sapiens, UniProt Q86UE8); details: kinase TLK2; NEW KINOMEscan
[16] = molecular target: kinases (KINOMEscan panel) (Homo sapiens, UniProt P24941); details: CDK2; NEW KINOMEscan

Chain of kinases (KINOMEscan panel) (Homo sapiens, UniProt P22607) (P22607 23-806): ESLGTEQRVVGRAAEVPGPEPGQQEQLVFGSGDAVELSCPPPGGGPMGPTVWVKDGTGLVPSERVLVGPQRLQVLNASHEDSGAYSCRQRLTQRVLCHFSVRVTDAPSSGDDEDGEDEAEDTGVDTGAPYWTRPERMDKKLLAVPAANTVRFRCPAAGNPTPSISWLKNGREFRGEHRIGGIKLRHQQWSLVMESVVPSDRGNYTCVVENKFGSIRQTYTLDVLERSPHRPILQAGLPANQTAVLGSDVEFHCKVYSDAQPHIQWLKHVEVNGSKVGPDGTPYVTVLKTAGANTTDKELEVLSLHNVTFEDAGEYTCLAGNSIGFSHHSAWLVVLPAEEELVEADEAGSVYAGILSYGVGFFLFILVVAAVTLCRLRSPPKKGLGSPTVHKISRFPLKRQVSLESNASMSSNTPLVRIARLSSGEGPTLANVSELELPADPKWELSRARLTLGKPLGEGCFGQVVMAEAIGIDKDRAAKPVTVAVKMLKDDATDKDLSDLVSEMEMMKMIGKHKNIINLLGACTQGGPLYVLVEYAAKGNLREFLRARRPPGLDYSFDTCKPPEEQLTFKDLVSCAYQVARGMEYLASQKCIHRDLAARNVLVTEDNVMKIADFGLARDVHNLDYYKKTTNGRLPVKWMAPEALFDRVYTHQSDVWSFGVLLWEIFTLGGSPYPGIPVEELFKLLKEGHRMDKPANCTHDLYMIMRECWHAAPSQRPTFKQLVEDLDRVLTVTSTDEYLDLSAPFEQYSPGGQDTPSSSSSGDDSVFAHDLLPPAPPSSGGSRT
Chain of kinases (KINOMEscan panel) (Homo sapiens, UniProt P06213) (P06213 28-1382): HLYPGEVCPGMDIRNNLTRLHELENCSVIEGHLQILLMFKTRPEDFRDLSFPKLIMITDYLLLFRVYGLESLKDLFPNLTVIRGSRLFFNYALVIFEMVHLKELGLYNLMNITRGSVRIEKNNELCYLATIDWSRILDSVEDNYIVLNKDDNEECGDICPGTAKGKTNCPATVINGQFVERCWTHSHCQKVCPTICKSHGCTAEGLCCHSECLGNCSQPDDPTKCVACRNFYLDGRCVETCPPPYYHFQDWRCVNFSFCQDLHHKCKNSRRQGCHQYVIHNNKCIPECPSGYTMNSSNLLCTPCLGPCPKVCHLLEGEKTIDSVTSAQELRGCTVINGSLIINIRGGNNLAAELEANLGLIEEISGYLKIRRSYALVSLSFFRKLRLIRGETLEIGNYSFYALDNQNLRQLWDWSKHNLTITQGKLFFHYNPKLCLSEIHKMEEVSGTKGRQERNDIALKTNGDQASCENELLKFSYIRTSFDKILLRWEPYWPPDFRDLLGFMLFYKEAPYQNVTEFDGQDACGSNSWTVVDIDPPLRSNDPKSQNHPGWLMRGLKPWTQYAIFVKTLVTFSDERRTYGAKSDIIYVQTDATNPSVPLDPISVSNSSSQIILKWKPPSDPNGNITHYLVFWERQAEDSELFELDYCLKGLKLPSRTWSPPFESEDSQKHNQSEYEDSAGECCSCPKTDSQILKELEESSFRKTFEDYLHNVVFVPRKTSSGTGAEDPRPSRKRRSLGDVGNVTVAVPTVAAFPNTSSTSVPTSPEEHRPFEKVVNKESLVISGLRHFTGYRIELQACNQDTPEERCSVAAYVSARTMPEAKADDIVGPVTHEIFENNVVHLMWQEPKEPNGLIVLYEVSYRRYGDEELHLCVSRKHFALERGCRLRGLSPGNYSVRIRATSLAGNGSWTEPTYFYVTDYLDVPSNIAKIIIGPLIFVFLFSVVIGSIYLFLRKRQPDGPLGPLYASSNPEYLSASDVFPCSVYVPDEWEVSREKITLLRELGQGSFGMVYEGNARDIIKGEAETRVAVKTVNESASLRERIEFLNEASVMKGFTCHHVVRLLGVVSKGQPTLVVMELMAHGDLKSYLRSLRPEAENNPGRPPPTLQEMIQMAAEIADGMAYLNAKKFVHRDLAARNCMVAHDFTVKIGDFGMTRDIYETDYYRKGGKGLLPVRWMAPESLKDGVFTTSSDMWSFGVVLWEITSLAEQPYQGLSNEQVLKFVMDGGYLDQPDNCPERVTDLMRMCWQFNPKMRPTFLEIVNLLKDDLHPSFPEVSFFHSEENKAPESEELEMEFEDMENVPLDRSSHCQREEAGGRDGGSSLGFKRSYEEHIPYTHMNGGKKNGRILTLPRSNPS
Chain of kinases (KINOMEscan panel) (Homo sapiens, UniProt P07949, M918T) (P07949 29-1114 M918T): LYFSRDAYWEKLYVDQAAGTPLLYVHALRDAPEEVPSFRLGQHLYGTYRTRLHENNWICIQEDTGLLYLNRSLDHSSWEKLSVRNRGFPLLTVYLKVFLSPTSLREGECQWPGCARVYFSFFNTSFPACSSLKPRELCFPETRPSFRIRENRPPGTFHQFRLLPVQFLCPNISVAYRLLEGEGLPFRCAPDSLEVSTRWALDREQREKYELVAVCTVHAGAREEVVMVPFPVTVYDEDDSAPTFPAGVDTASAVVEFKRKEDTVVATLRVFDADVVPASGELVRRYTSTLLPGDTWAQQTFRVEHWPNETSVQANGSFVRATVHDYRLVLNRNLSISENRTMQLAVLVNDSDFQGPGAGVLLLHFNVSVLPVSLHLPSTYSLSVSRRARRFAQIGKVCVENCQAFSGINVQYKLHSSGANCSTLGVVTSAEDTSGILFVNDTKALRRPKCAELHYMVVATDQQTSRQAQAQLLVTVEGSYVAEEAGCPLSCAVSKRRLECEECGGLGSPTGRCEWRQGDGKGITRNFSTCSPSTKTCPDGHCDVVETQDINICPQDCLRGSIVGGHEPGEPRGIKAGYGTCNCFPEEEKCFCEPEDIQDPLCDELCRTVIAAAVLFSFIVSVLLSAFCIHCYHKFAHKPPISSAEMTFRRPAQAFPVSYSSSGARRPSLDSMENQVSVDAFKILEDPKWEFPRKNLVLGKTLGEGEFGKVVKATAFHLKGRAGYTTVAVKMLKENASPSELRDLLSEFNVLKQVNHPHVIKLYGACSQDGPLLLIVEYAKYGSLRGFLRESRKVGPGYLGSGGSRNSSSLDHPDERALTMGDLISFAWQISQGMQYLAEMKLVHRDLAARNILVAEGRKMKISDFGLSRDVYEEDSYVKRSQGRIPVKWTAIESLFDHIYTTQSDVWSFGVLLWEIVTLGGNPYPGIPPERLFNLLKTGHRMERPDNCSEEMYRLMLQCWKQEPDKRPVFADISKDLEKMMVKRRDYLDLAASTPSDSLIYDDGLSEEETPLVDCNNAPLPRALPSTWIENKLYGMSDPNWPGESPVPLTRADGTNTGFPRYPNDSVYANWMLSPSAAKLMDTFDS
Chain of kinases (KINOMEscan panel) (Homo sapiens, UniProt Q9H3Y6) (Q9H3Y6 whole entry): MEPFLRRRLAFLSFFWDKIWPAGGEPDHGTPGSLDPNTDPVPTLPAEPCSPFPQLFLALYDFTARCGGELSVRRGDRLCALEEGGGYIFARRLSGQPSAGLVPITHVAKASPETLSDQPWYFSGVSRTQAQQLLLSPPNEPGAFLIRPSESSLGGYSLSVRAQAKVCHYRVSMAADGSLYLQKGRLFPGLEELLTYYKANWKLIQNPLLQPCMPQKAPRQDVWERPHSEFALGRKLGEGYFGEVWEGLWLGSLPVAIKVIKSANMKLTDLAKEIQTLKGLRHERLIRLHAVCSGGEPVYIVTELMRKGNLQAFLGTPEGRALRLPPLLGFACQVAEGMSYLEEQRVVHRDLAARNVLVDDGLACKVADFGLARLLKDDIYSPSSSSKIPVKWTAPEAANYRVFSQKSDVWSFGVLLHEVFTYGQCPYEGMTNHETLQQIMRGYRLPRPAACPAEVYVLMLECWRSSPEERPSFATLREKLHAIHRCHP
Chain of kinases (KINOMEscan panel) (Homo sapiens, UniProt Q86Z02) (Q86Z02 whole entry): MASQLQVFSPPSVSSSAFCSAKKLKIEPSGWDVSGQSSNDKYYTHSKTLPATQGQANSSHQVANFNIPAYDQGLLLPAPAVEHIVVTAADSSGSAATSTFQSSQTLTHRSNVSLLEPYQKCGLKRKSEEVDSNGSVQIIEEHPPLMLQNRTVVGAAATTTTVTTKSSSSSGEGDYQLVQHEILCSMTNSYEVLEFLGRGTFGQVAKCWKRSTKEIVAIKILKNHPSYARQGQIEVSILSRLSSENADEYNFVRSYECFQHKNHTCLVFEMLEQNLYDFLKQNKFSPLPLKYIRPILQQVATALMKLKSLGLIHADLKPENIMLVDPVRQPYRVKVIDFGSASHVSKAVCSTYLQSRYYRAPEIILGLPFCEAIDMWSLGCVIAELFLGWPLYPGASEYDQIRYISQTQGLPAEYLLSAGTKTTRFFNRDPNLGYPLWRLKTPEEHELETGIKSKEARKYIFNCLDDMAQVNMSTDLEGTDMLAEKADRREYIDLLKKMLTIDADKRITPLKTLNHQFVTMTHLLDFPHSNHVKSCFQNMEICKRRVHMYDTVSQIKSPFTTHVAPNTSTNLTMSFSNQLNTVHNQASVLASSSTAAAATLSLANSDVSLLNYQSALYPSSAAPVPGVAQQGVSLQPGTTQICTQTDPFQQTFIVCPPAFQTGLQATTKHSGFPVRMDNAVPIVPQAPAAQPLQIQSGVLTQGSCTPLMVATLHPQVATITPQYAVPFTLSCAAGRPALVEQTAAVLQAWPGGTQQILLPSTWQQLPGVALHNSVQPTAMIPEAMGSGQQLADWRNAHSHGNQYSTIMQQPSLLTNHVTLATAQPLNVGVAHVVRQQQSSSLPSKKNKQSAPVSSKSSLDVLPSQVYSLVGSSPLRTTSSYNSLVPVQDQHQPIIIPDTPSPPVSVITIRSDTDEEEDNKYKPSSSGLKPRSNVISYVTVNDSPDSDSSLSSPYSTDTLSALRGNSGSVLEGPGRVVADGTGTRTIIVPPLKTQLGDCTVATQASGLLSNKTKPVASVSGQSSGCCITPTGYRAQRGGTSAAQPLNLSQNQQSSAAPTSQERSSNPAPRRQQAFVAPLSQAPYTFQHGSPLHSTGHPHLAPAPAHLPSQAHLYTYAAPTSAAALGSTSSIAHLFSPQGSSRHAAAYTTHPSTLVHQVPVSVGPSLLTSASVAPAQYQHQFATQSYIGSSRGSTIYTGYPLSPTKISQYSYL

SMILES	KINOMEscan ABL1(Y253F)-phosphorylated [1]	KINOMEscan ABL1(H396P)-nonphosphorylated [2]	KINOMEscan ABL1(H396P)-phosphorylated [2]	KINOMEscan INSR [3]	KINOMEscan DYRK1B [4]	KINOMEscan HIPK1 [5]	KINOMEscan RET(M918T) [6]	KINOMEscan CDK13 [7]	KINOMEscan FGFR3 [8]	KINOMEscan IRAK4 [9]	KINOMEscan CAMK1D [10]	KINOMEscan LIMK1 [11]	KINOMEscan MAP4K3 [12]	KINOMEscan CDK17 [13]	KINOMEscan SRMS [14]	KINOMEscan TLK2 [15]	KINOMEscan CDK2 [16]
Cc1cccc(-c2nc(Nc3ccc4nn(C)cc4c3)c3ccccc3n2)n1 [NK167]	0	4	0	0	12	27	0	8	0	0	0	0	20	1	21	0	0
Cc1cccc(-c2nc(N(C)c3ccc4ncsc4c3)c3ccccc3n2)n1 [NK-161]	0	0	0	2	16	5	15	6	1	0	0	0	22	0	26	0	0
